The source of these data is US10532054B2, “Compounds for the prevention and treatment of cardiovascular diseases” (Resverlogix Corp., priority 2007, dated 2020).

Structures can show the parent of a compound that is named as a salt.

The compound `Cc1cc(-c2cc3ncccc3c(=O)[nH]2)cc(C)c1O` (as salt: HCl) [Example 8, 7-(4-hydroxy-3,5-dimethylphenyl)-1,6-naphthyridin-5(6H)-one] returned a melting point of more than 350 °C.

On to `COc1cc(OC)c2c(=O)[nH]c(-c3cc(C)c(O)c(C)c3)cc2n1` (as salt: HCl) [Example 16, 7-(4-hydroxy-3,5-dimethylphenyl)-2,4-dimethoxy-1,6-naphthyridin-5(6H)-one], for which the melting point was more than 324 °C.

Compound `COc1cc(OC)c2cnc(-c3cc(C)c(OCCN4CCOCC4)c(C)c3)cc2c1` (as salt: HCl) [Example 22, 4-(2-(4-(6,8-dimethoxyisoquinolin-3-yl)-2,6-dimethylphenoxy)ethyl)morpholine] gave a melting point of 239 to 240 °C.

Compound `COc1cc(OC)c2c(=O)[nH]c(-c3cc(C)c(OCCN(C)C)c(C)c3)cc2c1` (as salt: hydrochloride) [Example 10, 3-(4-(2-(dimethylamino)ethoxy)-3,5-dimethylphenyl)-6,8-dimethoxyisoquinolin-1(2H)-one] gave a melting point of 261 to 263 °C.

For the compound `Cc1cc(-c2cc3ccc(CN4CCOCC4)cc3c(=O)[nH]2)cc(C)c1O` (as salt: hydrochloride) [Example 11, 3-(4-hydroxy-3,5-dimethylphenyl)-7-(morpholinomethyl)isoquinolin-1(2H)-one], the melting point was in the range of 281 to 283 °C.

For `COc1cc(O)nc2cc(-c3cc(C)c(O)c(C)c3)[nH]c(=O)c12` (as salt: hydrochloride) [Example 12, 2-hydroxy-7-(4-hydroxy-3,5-dimethylphenyl)-4-methoxy-1,6-naphthyridin-5(6H)-one], the melting point is more than 330 °C.

In the case of `COc1cc(OC)c2cnc(-c3cc(C)c(O)c(C)c3)cc2c1` (as salt: hydrochloride) [Example 18, 4-(6,8-dimethoxyisoquinolin-3-yl)-2,6-dimethylphenol], the melting point is 255 to 256 °C.

Turning to `COc1cc(OC)c2c(=O)[nH]c(-c3cc(C)c(OCCN4CCOCC4)c(C)c3)nc2c1` (as salt: hydrochloride) [Example 21, 2-(3,5-dimethyl-4-(2-morpholinoethoxy)phenyl)-5,7-dimethoxyquinazolin-4(3H)-one], the melting point was in the range of 185 to 187 °C.

`COc1cc(OC)c2c(=O)[nH]c(-c3cc(C)c(OCCN4CCN(C)CC4)c(C)c3)cc2c1` (as salt: hydrochloride) [Example 23] came in with a melting point of 195 to 198 °C.

Take `COc1cc(OC)c2c(=O)[nH]c(-c3ccccn3)nc2c1` (as salt: hydrochloride) [Example 26, 5,7-dimethoxy-2-(pyridin-2-yl)quinazolin-4(3H)-one]: the melting point lay in the range of 215 to 217 °C.

The compound `COc1cc(OC)c2c(=O)[nH]c(-c3cccnc3)nc2c1` (as salt: hydrochloride) [Example 27, 5,7-dimethoxy-2-(pyridin-3-yl)quinazolin-4(3H)-one] returned a melting point of 257 to 259 °C.

For the compound `COc1cc(OC)c2c(=O)[nH]c(-c3ccncc3)nc2c1` (as salt: hydrochloride) [Example 33, 5,7-dimethoxy-2-(pyridin-4-yl)quinazolin-4(3H)-one], the melting point was in the range of 294 to 295 °C.

Compound `Cc1cc(-c2nc3ccccc3c(=O)[nH]2)cc(C)c1OCCN1CCOCC1` (as salt: hydrochloride) [Example 34, 2-(3,5-dimethyl-4-(2-morpholinoethoxy)phenyl)quinazolin-4(3H)-one] returned a melting point of 300 to 302 °C.

Compound `COc1cc(OC)c2c(=O)[nH]c(-c3ccc(CN4CCN(C)CC4)cc3)nc2c1` (as salt: hydrochloride) [Example 59, 5,7-dimethoxy-2-(4((4-methylpiperazin-1-yl)methyl)phenyl)quinazolin-4(3H)-one] yielded a melting point of 275 to 277 °C.

In the case of `Cc1cc(-c2nc3ccc(CN4CCOCC4)cc3c(=O)[nH]2)cc(C)c1O` (as salt: hydrochloride) [Example 62, 2-(4-hydroxy-3,5-dimethylphenyl)-6-(morpholinomethyl)quinazolin-4(3H)-one], the melting point was in the range of 284 to 286 °C.

Turning to `COc1cc(OC)c2c(=O)[nH]c(-c3ccc(CN4CCOCC4)cc3)nc2c1` (as salt: hydrochloride) [Example 66, 5,7-dimethoxy-2-(4-(morpholinomethyl)phenyl)quinazolin-4(3H)-one], the melting point was 206 to 208 °C (dec.).

Take `CCN1CCN(Cc2ccc(-c3nc4cc(OC)cc(OC)c4c(=O)[nH]3)cc2)CC1` (as salt: hydrochloride) [Example 67, 2-(4((4-ethylpiperazin-1-yl)methyl)phenyl)-5,7-dimethoxyquinazolin-4(3H)-one]: the melting point is 278 to 280 °C (dec.).

Regarding `O=c1[nH]c(-c2ccc(O)cc2)cc2ccccc12` [Example 1, 3-(4-Hydroxyphenyl)-2H-isoquinolin-1-one], the melting point fell in the range of 239 to 241 °C.

`Oc1ccc(-c2cc3ccccc3cn2)cc1` [Example 2, 4-lsoquinolin-3-yl-phenol] had a melting point of 218 to 219 °C.

Take `Oc1ccc(-c2cc3ncccc3cn2)cc1` [Example 5, 4-(1,6-naphthyridin-7-yl)phenol]: the melting point lay within 219 to 221 °C.

Consider `COc1cc(OC)c2c(=O)[nH]c(-c3ccc(O)cc3)cc2c1` [Example 6, 3-(4-hvdroxyphenyl)-6,8-dimethoxyisoquinolin-1(2H)-one], for which the melting point lay in the range of 245 to 247 °C.

Regarding `COc1cc(OC)c2c(=O)n(C)c(-c3cc(C)c(O)c(C)c3)cc2c1` [Example 7, 3-(4-hydroxy-3,5-dimethylphenyl)-6,8-dimethoxy-2-methylisoquinolin-1(2H)-one], the melting point lay within 253 to 254 °C.

`COc1cc(OC)c2c(=O)[nH]c(-c3cc(C)c(OCC(C)(C)O)c(C)c3)cc2c1` [Example 14, 3-(4-(2-hydroxy-2-methylpropoxy)-3,5-dimethylphenyl)-6,8-dimethoxyisoquinolin-1(2H)-one] came in with a melting point of 252 to 254 °C.

As for `COc1cc2c(c(OC)c1)S(=O)(=O)NC(c1cc(C)c(O)c(C)c1)=C2` [Example 15, 6,8-dimethoxy-3-(4-hydroxy-3,5-dimethylphenyl)-2H-1,2-benzothiazine-1,1-dioxide], the melting point is 246.6 to 247.4 °C.

In turn, `COc1cc2cc(-c3cc(C)c(O)c(C)c3)n(C)c(=O)c2c(OC)c1C` [Example 17, 3-(4-hydroxy-3,5-dimethylphenyl)-6,8-dimethoxy-2,7-dimethylisoquinolin-1(2H)-one] gave a melting point of 246 to 248 °C.

For `COc1cc(OC)c2c(=O)[nH]c(-c3cc(C(C)(C)C)c(O)c(C(C)(C)C)c3)nc2c1` [Example 28, 2-(3,5-di-tert-butyl-4-hydroxyphenyl)-5,7-dimethoxyquinazolin-4(3H)-one], the melting point was in the range of 229.7 to 230.5 °C.

`COc1cc(OC)cc(-c2nc3cc(OC)cc(OC)c3c(=O)[nH]2)c1` [Example 29, 2-(3,5-dimethoxyphenyl)-5,7-dimethoxyquinazolin-4(3H)-one]: the melting point lay in the range of 270 to 272 °C.

For the compound `COc1ccc(-c2nc3cc(OC)cc(OC)c3c(=O)[nH]2)cc1` [Example 30, 5,7-dimethoxy-2-(4-methoxyphenyl)quinazolin-4(3H)-one], the melting point lay in the range of 276 to 277 °C.

Take `COc1cc(OC)c2c(=O)[nH]c(-c3ccc(O)c(OC)c3)nc2c1` [Example 31, 2-(4-hydroxy-3-methoxyphenyl)-5,7-dimethoxyquinazolin-4(3H)-one]: the melting point was 294 to 296 °C.

The compound `COc1cc(OC)c2c(=O)[nH]c(-c3ccc(O)c(Cl)c3)nc2c1` [Example 32, 2-(3-chloro-4-hydroxyphenyl)-5,7-dimethoxyquinazolin-4(3H)-one] displayed a melting point of 279 to 281 °C.

`Cc1cc(-c2nc3ccccc3c(=O)[nH]2)cc(C)c1OCCO` [Example 35, 2-(4-(2-hydroxyethoxy)-3,5-dimethylphenyl)quinazolin-4(3H)-one] showed a melting point of 260 to 261 °C.

As for `O=c1[nH]c(-c2ccc3c(c2)OCCO3)nc2ccccc12` [Example 36, 2-(2,3-dihydrobenzo[b][1,4]dioxin-6-yl)quinazolin-4(3H)-one], the melting point is 267 to 268 °C (dec.).

`COc1cc(OC)c2c(=O)[nH]c(-c3ccc(N(C)C)c4ccccc34)nc2c1` [Example 37, 2-(4-(dimethylamino)naphthalen-1-yl)-5,7-dimethoxyquinazolin-4(3H)-one] showed a melting point of 269 to 271 °C.

Regarding `COc1cc(OC)c2c(=O)[nH]c(-c3ccc(OCC(N)=O)cc3)nc2c1` [Example 38, 2-(4-(5,7-dimethoxy-4-oxo-3,4-dihydroquinazolin-2-yl)phenoxy)acetamide], the melting point lay within 309 to 311 °C.

`O=C(O)COc1ccc(-c2nc3ccccc3c(=O)[nH]2)cc1` [Example 39, 2-(4-(4-oxo-3,4-dihydroquinazolin-2-yl)phenoxy)acetic acid]: the melting point lay in the range of 285 to 287 °C.

In turn, `CN(C)c1ccc(-c2nc3ccccc3c(=O)[nH]2)c2ccccc12` [Example 40, 2-(4-(dimethylamino)naphthalen-1-yl)quinazolin-4(3H)-one] registered a melting point of 224 to 226 °C.

Turning to `NC(=O)COc1ccc(-c2nc3ccccc3c(=O)[nH]2)cc1` [Example 41, 2-(4-(4-oxo-3,4-dihydroquinazolin-2-yl)phenoxy)acetamide], the melting point lay in the range of 277.5 to 278.5 °C.

In turn, `COc1cc(OC)c2c(=O)[nH]c(-c3ccc4c(c3)OCCO4)nc2c1` [Example 42, 2-(2,3-dihydrobenzo[b][1,4]dioxin-6-yl)-5,7-dimethoxyquinazolin-4(3H)-one] came in with a melting point of 307.5 to 309.6 °C.

The compound `COc1cc2nc(-c3ccc(N(C)C)c4ccccc34)[nH]c(=O)c2cc1OC` [Example 44] returned a melting point of 235.5 to 236.5 °C.

Turning to `O=c1[nH]c(-c2ccc(N(CCO)CCO)cc2)nc2ccccc12` [Example 45, 2-(4-(bis(2-hydroxyethyl)amino)phenyl)quinazolin-4(3H)-one], the melting point lay within 228 to 230 °C.

In turn, `COc1cc(OC)c2c(=O)[nH]c(-c3ccc(N(CCO)CCO)cc3)nc2c1` [Example 46, 2-(4-(bis(2-hydroxyethyl)amino)phenyl)-5,7-dimethoxyquinazolin-4(3H)-one] yielded a melting point of 249 to 251 °C.

The melting point is the temperature, or range, at which the solid turns liquid.
